Results published in US12226523B2, “Method for preparing self-assembled nanoparticle releasing soluble microneedle structure” (RESEARCH & BUSINESS FOUNDATION SUNGKYUNKWAN UNIVERSITY, priority 2016, dated 2025).

Tested on: cells (HCT-116)
Assay: Intracellular delivery of nanoparticles produced from soluble microneedles (confocal fluorescence microscope)
Assay type: cell-based
Settings: HCT-116 cells, 4 hours after treatment
Method: To this end, soluble microneedles in which a hydrophobic fluorescent material, DiD (Invitrogen, Carlsbad, CA, USA), used in cell membrane staining, was loaded were manufactured according to the method described in Example 1. Afterward, cells (HCT-116) were treated with a solution in which the microneedles were dissolved according to the method of Example 2, 4 hours later, intracellular delivery of nanoparticles produced from the soluble microneedles was observed using a confocal fluorescence microscope.

For `CCCCCCCCCCCCCCCCCCN1C(=CC=CC=CC2=[N+](CCCCCCCCCCCCCCCCCC)c3ccccc3C2(C)C)C(C)(C)c2ccccc21.[I-]` [DiD, 1,1′-dioctadecyl-3,3,3′,3′-tetramethylindodicarbocyanine iodide], the “cellular localisation of the hydrophobic fluorescent material DiD” value was “stained the cell membrane”.
